In patent publication US20100286181A1, “PYRROLE DERIVATIVES WITH ANTIBACTERIAL ACTIVITY” (ASTRAZENECA AB, priority 2006, published 2010):
pIC50: −log10 of the molar value.

These compounds were tested against GyrB ATPase activity (E. coli GyrA, E. coli GyrB) (Escherichia coli, UniProt P0AES6) (assay: GyrB ATPase inhibition activity assay (ammonium molybdate/malachite green phosphate detection)). Details: figure quoted may be an average of two or more results.
Format: biochemical
Protocol: Compounds may be tested for inhibition of GyrB ATPase activity using an ammonium molybdate/malachite green-based phosphate detection assay (Lanzetta, P. A., L. J. Alvarez, P. S. Reinach, and O. A. Candia, 1979, 100: 95-97). Assays can be performed in multiwell plates in 100 μl reactions containing: 50 mM HEPES buffer pH 7.5, 75 mM ammonium acetate, 5.5 mM magnesium chloride, 0.5 mM ethylenediaminetetraacetic acid, 5% glycerol, 1 mM 1,4-Dithio-DL-threitol, 200 nM bovine serum albumin, 5 μg/ml sheared salmon sperm DNA, 2.5 nM E. coli GyrA, 2.5 nM E. coli GyrB, 250 μM ATP, and compound in dimethylsulfoxide. Reactions can be quenched with 150 μl of ammonium molybdate/malachite green detection reagent containing 1.2 mM malachite green hydrochloride, 8.5 mM ammonium molybdate tetrahydrate, and 1 M hydrochloric acid.
Compounds of the Examples could be expected to have IC50 values of <200 μg/ml in one or both assays described herein above. For Example the following results were obtained in a GyrB ATPase inhibition activity assay substantially similar to the above wherein the figure quoted may be an average of two or more results

Point of comparison: `COC(=O)c1cnc(N2CCC(NC(=O)c3[nH]c(C)c(Cl)c3Cl)C(OC)(OC)C2)s1` (stereo not shown) [Example 10, Methyl 2-(4-{[(3,4-dichloro-5-methyl-1H-pyrrol-2-yl)carbonyl]amino}-3,3-dimethoxypiperidin-1-yl)-1,3-thiazole-5-carboxylate], pIC50 6.77. Against it:
- COC[C@H](C)NC(=O)c1nc(N2CC[C@H](NC(=O)c3[nH]c(C)c(Cl)c3Cl)[C@H](n3cncn3)C2)sc1C(=O)O (racemic) [Example 50, cis(±)2-[4-{[(3,4-Dichloro-5-methyl-1H-pyrrol-2-yl)carbonyl]amino}-3-(1H-1,2,4-triazol-1-yl)piperidin-1-yl]-4-({[(1S)-2-methoxy-1-methylethyl]amino}carbonyl)-1,3-thiazole-5-carboxylic acid] — higher, > 8.01
- CC(=O)c1nc(N2CCC(NC(=O)c3[nH]c(C)c(Cl)c3Cl)C3(C2)OCCO3)sc1C(=O)O (stereo not shown) [Example 12, 4-Acetyl-2-(10-{[(3,4-dichloro-5-methyl-1H-pyrrol-2-yl)carbonyl]amino}-1,4-dioxa-7-azaspiro[4.5]dec-7-yl)-1,3-thiazole-5-carboxylic acid] — higher, > 7.08
- COCC(COC)NC(=O)c1nc(N2CC[C@@H](NC(=O)c3[nH]c(C)c(Cl)c3Cl)[C@@H](n3cc(CF)nn3)C2)sc1C(=O)O [Example 112] — higher, > 8.01
- C=C1COC2(CN(c3ncc(C(=O)O)s3)CCC2NC(=O)c2[nH]c(C)c(Cl)c2Cl)OC1 (stereo not shown) [Example 56, 2-(11-{[(3,4-Dichloro-5-methyl-1H-pyrrol-2-yl)carbonyl]amino}-3-methylene-1,5-dioxa-8-azaspiro[5.5]undec-8-yl)-1,3-thiazole-5-carboxylic acid] — higher, > 8.01
- COCC(COC)NC(=O)c1nc(N2CC[C@@H](NC(=O)c3[nH]c(C)c(Cl)c3Cl)[C@@H](n3cc(CC#N)nn3)C2)sc1C(=O)O [Example 111] — higher, > 8.01
- C=CCOC(=O)c1sc(N2CCC(NC(=O)c3[nH]c(C)c(Cl)c3Cl)/C(=N/OC)C2)nc1C(=O)NCCOC (stereo not shown) [Example 30, Allyl 2-[(3E)-4-{[(3,4-dichloro-5-methyl-1H-pyrrol-2-yl)carbonyl]amino}-3-(methoxyimino)piperidin-1-yl]-4-{[(2-methoxyethyl)amino]carbonyl}-1,3-thiazole-5-carboxylate] — 0.29 log units higher, 7.06
- COCC(COC)(COC)NC(=O)c1nc(N2CC[C@@H](NC(=O)c3[nH]c(C)c(Cl)c3Cl)[C@@H](n3cc(C)nn3)C2)sc1C(=O)O [Example 106] — not separable, > 6.36
- Cc1[nH]c(C(=O)N[C@H]2CCN(c3ncc(C(N)=O)s3)C[C@H]2n2ccnc2)c(Cl)c1Cl (racemic) [Example 47, cis(±)2-[4-{[(3,4-Dichloro-5-methyl-1H-pyrrol-2-yl)carbonyl]amino}-3-(1H-imidazol-1-yl)piperidin-1-yl]-1,3-thiazole-5-carboxamide] — 0.82 log units higher, 7.59
- COCC(COC)NC(=O)c1nc(N2CC[C@@H](NC(=O)c3[nH]c(C)c(Cl)c3Cl)[C@@H](n3ccnn3)C2)sc1C(=O)O [Example 118] — higher, > 8.01
- CONC(=O)c1cccc2nc(N3CC[C@H](NC(=O)c4[nH]c(C)c(Cl)c4Cl)[C@H](n4ccnc4)C3)sc12 (racemic) [Example 46, cis(±)2-[4-{[(3,4-Dichloro-5-methyl-1H-pyrrol-2-yl)carbonyl]amino}-3-(1H-imidazol-1-yl)piperidin-1-yl]-N-methoxy-1,3-benzothiazole-7-carboxamide] — higher, > 8.01
- Cc1[nH]c(C(=O)NC2CCN(c3ncc(C(=O)O)s3)CC23OCCO3)c(Cl)c1Cl (stereo not shown) [Example 11, 2-(10-{[(3,4-Dichloro-5-methyl-1H-pyrrol-2-yl)carbonyl]amino}-1,4-dioxa-7-azaspiro[4.5]dec-7-yl)-1,3-thiazole-5-carboxylic acid] — 0.98 log units higher, 7.75
- COC(=O)c1cnc(N2CC[C@H](NC(=O)c3[nH]c(C)c(Cl)c3Cl)[C@H](N=[N+]=[N-])C2)s1 (racemic) [Example 65, cis(±)Methyl 2-(3-azido-4-{[(3,4-dichloro-5-methyl-1H-pyrrol-2-yl)carbonyl]amino}piperidin-1-yl)-1,3-thiazole-5-carboxylate] — higher, > 8.01
- Cc1[nH]c(C(=O)N[C@@H]2CCN(c3nc(C(=O)NC4CC4)c(C(=O)O)s3)C[C@@H]2n2cc(Cl)nn2)c(Cl)c1Cl [Example 110] — higher, > 8.01
- COCC(COC)NC(=O)c1nc(N2CC[C@@H](NC(=O)c3[nH]c(C)c(Cl)c3Cl)[C@@H](n3cc(Br)nn3)C2)sc1C(=O)O [Example 113] — higher, > 8.01
- COC(=O)c1sc(N2CCC(NC(=O)c3[nH]c(C)c(Cl)c3Cl)C3(C2)OCCCO3)nc1C(C)=O (stereo not shown) [Example 9, Methyl 4-acetyl-2-(11-{[(3,4-dichloro-5-methyl-1H-pyrrol-2-yl)carbonyl]amino}-1,5-dioxa-8-azaspiro[5.5]undec-8-yl)-1,3-thiazole-5-carboxylate] — 0.51 log units higher, 7.28
- COCCNC(=O)c1nc(N2CCC(NC(=O)c3[nH]c(C)c(Cl)c3Cl)C3(C2)OCCCO3)sc1C(=O)O (stereo not shown) [Example 17, 2-(11-{[(3,4-Dichloro-5-methyl-1H-pyrrol-2-yl)carbonyl]amino}-1,5-dioxa-8-azaspiro[5.5]undec-8-yl)-4-{[(2-methoxyethyl)amino]carbonyl}-1,3-thiazole-5-carboxylic acid] — higher, > 8.01
- Cc1[nH]c(C(=O)N[C@@H]2CCN(c3nc4cccc(C(N)=O)c4s3)C[C@@H]2n2ccnn2)c(Cl)c1Cl [Example 82, 2-[(3S,4R)-4-{[(3,4-Dichloro-5-methyl-1H-pyrrol-2-yl)carbonyl]amino}-3-(1H-1,2,3-triazol-1-yl)piperidin-1-yl]-1,3-benzothiazole-7-carboxamide] — higher, > 8.01
- Cc1[nH]c(C(=O)N[C@H]2CCN(c3ncc(C(=O)O)s3)C[C@H]2n2cnc(Cl)n2)c(Cl)c1Cl (racemic) [Example 45, cis(±)2-(3-(3-Chloro-1H-1,2,4-triazol-1-yl)-4-{[(3,4-dichloro-5-methyl-1H-pyrrol-2-yl)carbonyl]amino}piperidin-1-yl)-1,3-thiazole-5-carboxylic acid] — higher, > 8.01
- COC(=O)c1cnc(N2CC[C@H](NC(=O)c3[nH]c(C)c(Cl)c3Cl)[C@H](n3ccnn3)C2)s1 (racemic) [Example 126, cis(±)Methyl 2-[4-{[(3,4-dichloro-5-methyl-1H-pyrrol-2-yl)carbonyl]amino}-3-(1H-1,2,3-triazol-1-yl)piperidin-1-yl]-1,3-thiazole-5-carboxylate] — 0.72 log units higher, 7.49
- COC(=O)c1cnc(N2CC[C@H](NC(=O)c3[nH]c(C)c(Cl)c3Cl)[C@H](n3cncn3)C2)s1 (racemic) [Example 39, cis(±)Methyl 2-[4-{[(3,4-dichloro-5-methyl-1H-pyrrol-2-yl)carbonyl]amino}-3-(1H-1,2,4-triazol-1-yl)piperidin-1-yl]-1,3-thiazole-5-carboxylate] — 0.71 log units higher, 7.48
- CCOC(=O)c1sc(N2CCC(NC(=O)c3[nH]c(C)c(Cl)c3Cl)C3(C2)OCCO3)nc1C(=O)NCCOC (stereo not shown) [Example 5, Ethyl 2-(10-{[(3,4-dichloro-5-methyl-1H-pyrrol-2-yl)carbonyl]amino}-1,4-dioxa-7-azaspiro[4.5]dec-7-yl)-4-{[(2-methoxyethyl)amino]carbonyl}-1,3-thiazole-5-carboxylate] — within 0.2 log units, 6.65
